In PMC6628648, “Enabling microbial syringol conversion through structure-guided protein engineering” (Proceedings of the National Academy of Sciences of the …, 2019):

How the values were obtained:
GcoA variant F169L = biological target: T1, GcoA variant F169L (Amycolatopsis sp., UniProt P0DPQ7, F169L); assay: NADH consumption assay (specific activity) with GcoB; format: biochemical, Amycolatopsis sp. ATCC 39116; settings: saturating (200 µM) substrate, pH 7.5, 25°C
T1 construct: GST (N, cleaved yes); made in house; host or cells: E. coli Rosetta 2 (DE3)
T1 sequence (P0DPQ7 whole entry F169L): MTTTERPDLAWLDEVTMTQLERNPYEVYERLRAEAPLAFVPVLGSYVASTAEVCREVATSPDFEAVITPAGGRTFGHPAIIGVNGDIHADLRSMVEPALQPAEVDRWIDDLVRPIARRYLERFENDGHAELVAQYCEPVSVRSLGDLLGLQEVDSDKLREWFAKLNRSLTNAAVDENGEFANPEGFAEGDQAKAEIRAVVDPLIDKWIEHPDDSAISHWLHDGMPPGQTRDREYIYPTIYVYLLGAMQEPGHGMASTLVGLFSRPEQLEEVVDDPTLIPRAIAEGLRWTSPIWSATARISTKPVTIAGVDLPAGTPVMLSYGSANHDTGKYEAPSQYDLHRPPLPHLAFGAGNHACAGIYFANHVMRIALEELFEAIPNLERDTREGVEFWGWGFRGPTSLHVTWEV

GcoA-F169A [1] = biological target: T2, GcoA-F169A (Amycolatopsis sp., UniProt P0DPQ7, F169A); assay: NADH consumption assay (steady-state kinetics, specific activity) with GcoB; settings: for Specific activity: NADH consumption, saturating (200 µM) substrate, pH 7.5, 25°C; for NADH disappearance (specific activity): Table S1, saturating substrate
T2 sequence (P0DPQ7 whole entry F169A): as the sequence (P0DPQ7 whole entry F169L) above, with L169A counted along it

GcoA variant F169H = biological target: T3, GcoA variant F169H (Amycolatopsis sp., UniProt P0DPQ7, F169H); assay: NADH consumption assay (specific activity) with GcoB; format: biochemical, Amycolatopsis sp. ATCC 39116; settings: saturating (200 µM) substrate, pH 7.5, 25°C
T3 construct: GST (N, cleaved yes); made in house; host or cells: E. coli Rosetta 2 (DE3)
T3 sequence (P0DPQ7 whole entry F169H): as the sequence (P0DPQ7 whole entry F169L) above, with L169H counted along it

WT GcoA = biological target: T4, WT GcoA (Amycolatopsis sp., UniProt P0DPQ7); assay: End-point coupling assay (formaldehyde produced per NADH consumed); format: biochemical, Amycolatopsis sp. ATCC 39116; settings: molar ratio formaldehyde produced per NADH consumed, 200 µM NADH, 200 µM aromatic substrate
T4 construct: GST (N, cleaved yes); made in house; host or cells: E. coli Rosetta 2 (DE3)
T4 sequence (P0DPQ7 1-407): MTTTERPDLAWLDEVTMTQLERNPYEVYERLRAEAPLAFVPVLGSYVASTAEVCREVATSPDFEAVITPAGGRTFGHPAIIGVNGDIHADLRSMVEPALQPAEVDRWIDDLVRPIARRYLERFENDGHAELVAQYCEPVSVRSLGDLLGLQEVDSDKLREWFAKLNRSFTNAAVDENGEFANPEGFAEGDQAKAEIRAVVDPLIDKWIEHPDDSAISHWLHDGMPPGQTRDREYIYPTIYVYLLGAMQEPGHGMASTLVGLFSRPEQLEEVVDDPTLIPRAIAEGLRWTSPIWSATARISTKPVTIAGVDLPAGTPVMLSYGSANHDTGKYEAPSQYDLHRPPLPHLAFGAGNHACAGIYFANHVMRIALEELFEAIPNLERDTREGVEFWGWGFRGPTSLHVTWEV

GcoA-F169A [2] = biological target: T2, GcoA-F169A; assay: H2O2 detection via HRP and Amplex Red (uncoupling reaction); format: biochemical, Amycolatopsis sp. ATCC 39116; design: GST (N, cleaved yes); made in house; host or cells: E. coli Rosetta 2 (DE3); settings: referenced to NADH consumed
Method: A colorimetric assay involving HRP and Amplex Red was used to quantify H2O2 in the reaction between GcoA-F169A GcoA/GcoB, NADH and guaiacol, syringol, or 3MC, as described in SI Appendix. […]
vi = Vmax[S]/(KM + [S]) (4) […]
The reaction of each aliquot was immediately quenched with 12.5
μL saturated ammonium sulfate, 7% v/v H2SO4 (pH 2.0) prior to loading onto the HPLC column. [Substrate] disappearance was referenced to GcoA (0.2 µM) and fit to a linear line to determine specific activity.
Data analysis. The consumption of NADH and subsequent production of formaldehyde and aromatic product were measured in triplicate and the error reported as ±1 standard deviation. To determine the statistical significance between NADH consumption and the products produced, the p-value was determined for all runs containing guaiacol, syringol, and 3MC. These values were calculated using two degrees of freedom, a tail value of two, and assuming a t-statistical value for unequal variances.
Detection of H2O2 via horseradish peroxidase (HRP) and Amplex Red assay. The reaction between 100 μM guaiacol or 3MC with 0.2 μM F169A/GcoB and 100 μM NADH in air-saturated buffer (25 mM HEPES, 50 mM NaCl, pH 7.5) was monitored continuously in a quartz cuvette, using the NADH consumption assay described above. The same thing was done for syringol, but with either 100 or 200 μM NADH. When there was no longer any change in the spectra, e.g., the reaction was completed, 100 μL was removed from the cuvette and pipetted into a 96-well microplate. A 5 mL solution containing 50 μL of 10 mM Amplex Red (prepared in DMSO and stored at -20 °C) and 100 μL of 10 U/mL HRP was made up in the above buffer. 100 μL of this was added to each of the wells with each reaction sample. The plate was incubated in the dark at room temperature for 30 min, at which point the absorbance at […]
572 nm was recorded by a Varioskan Lux microplate reader (Thermo Scientific). The absorbance was compared to a standard curve with 0-100 μM H2O2 to quantify the amount of peroxide produced in the reactions.
Purified protein was buffer exchanged into 10 mM HEPES pH 7.5 and concentrated to an A280 value of 12, as measured on a NanoDrop 2000 spectrophotometer (Thermo Fisher). Crystals of GcoA were grown with 2.4 M sodium malonate and 200 mM substrate, dissolved in 40% DMSO where necessary. Crystals were cryocooled directly in liquid N2 without further addition of cryoprotectants. All data were collected at Diamond Light Source (Harwell, UK). For each crystal, 1800 images were taken at 0.1o increments using the default wavelength of 0.9795Å on beamline i04. Data was captured on a Pilatus 6M-F detector. […]

Compound | Specific activity (GcoA variant F169L) [μmol sec-1 μmol-1 GcoA] | Specific activity (GcoA-F169A [1]) [μmol sec-1 μmol-1 GcoA] | NADH disappearance (specific activity) (GcoA-F169A [1]) [μM s-1 μmol F169A-1] | Specific activity (GcoA variant F169H) [μmol sec-1 μmol-1 GcoA] | Coupling efficiency (WT GcoA) [%] | % H2O2 produced (GcoA-F169A [2]; 100 µM substrate + 100 µM NADH) [%] | % H2O2 produced (GcoA-F169A [2]; 100 µM substrate + 200 µM NADH) [%]
COc1cccc(O)c1O [3MC, 3-methoxycatechol] | 0.57 ± 0.2 | 5.6 ± 0.8 | 5.6 ± 0.8 | 4.3 ± 0.4 | 78 ± 3 | 17 ± 0.2 | –
COc1ccccc1O [guaiacol, 2-methoxyphenol] | 4.5 ± 0.3 | 5.8 ± 0.8 | 5.8 ± 0.8 | 7.9 ± 3 | 110 ± 10 | 3.7 ± 0.6 | –
COc1cccc(OC)c1O [syringol, 2,6-dimethoxyphenol] | 0.54 ± 0.1 | 5.1 ± 0.8 | 5.1 ± 0.8 | 3.9 ± 0.2 | 7.1 ± 0.8 | 7.4 ± 0.03 | 7.9 ± 0.5
